According to patent publication US11427553B2, “Dihydrooxadiazinones” (Bayer Aktiengesellschaft, priority 2017, dated 2022):
pIC50: −log10 of the molar value.

What was measured:
[1] = tested on: SK-MEL-3 cells; test: Assay 1 cell proliferation measurement (CTG, 72 h), SK-MEL-3; type: cell-based, human; details: Homo sapiens, SK-MEL3; Assay 1, 72 h, Cell Titer Glo; read-out: SK-MEL-3 IC50 [nM] (melanoma)
Summary of the method: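 CellTiter-Glo luminescence was read at treatment start (0 h plate) and after 72 h compound exposure at 37 °C. Doses were 2.5-fold steps, ten concentrations, top 100 nM final, 0.3% DMSO. Growth inhibition was scaled between 0 h and vehicle values, and IC50 was obtained by 4-parameter fitting.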

[2] = tested on: HEL 92.1.7 cells; test: Assay 1 cell proliferation measurement, HEL 92.1.7; type: cell-based; details: Homo sapiens, Erythroleukemia, read-out: Anti-proliferation IC50 [nM] HEL 92.1.7
[3] = molecular target: human full length PDE3A (Homo sapiens (Human), UniProt Q14432); test: Assay 4 PDE3A enzyme inhibition (3H-cAMP SPA); type: biochemical; details: Sf9 cell extract
Summary of the method: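 Hydrolysis of [8-3H]cAMP by Sf9-expressed full-length PDE3A was measured by scintillation proximity, with enzyme diluted to keep kinetics linear and substrate consumption below 70%. Incubation ran 60 min at room temperature at pH 7.5.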

[4] = Assay 7 in vivo pharmacokinetics in non-rodents (dogs); parameters: species or system Beagle dogs; details: i.v.
Description: Assay 7 In Vivo Pharmacokinetics in Non-Rodents (e.g. Dogs)
For in vivo pharmacokinetic experiments test compounds were administered to non-rodents (e.g. female Beagle dogs) intravenously (i.v.) at doses of 0.1 to 1 mg/kg and intragastrally (i.g.) at doses of 0.3 to 3 mg/kg formulated as solutions using solubilizers such as e.g. PEG400 in well-tolerated amounts and are usually given as short term infusion (15 min).
Blood samples were taken e.g. at 2 min, 8 min, 15 min, 30 min, 45 min, 1 h, 2 h, 4 h, 6 h, 8 h and 24 h after dosing from the vena saphena.
For pharmacokinetics after intragastral administration test compounds were given intragastrally to fasted non-rodents (e.g. dogs). Blood samples were taken e.g. at 5 min, 15 min, 30 min, 45 min, 1 h, 2 h, 4 h, 6 h, 8 h and 24 h after dosing. […] Blood was collected into Lithium-Heparin tubes (Monovetten@, Sarstedt) and centrifuged for 15 min at 3000 rpm. A small aliquot (e.g. 100 μL) from the supernatant (plasma) was taken and precipitated by addition of an aliquot ice cold acetonitrile (e.g. of 400 μL) and frozen at −20° C. over night. Samples were subsequently thawed and centrifuged at 3000 rpm, 4° C. for 20 minutes. Aliquots of the supernatants were taken for analytical testing using an Agilent HPLC-system with LCMS/MS detection. PK parameters were calculated by non-compartmental analysis using a PK calculation software.
PK parameters derived from concentration-time profiles after i.v.: CLplasma: Total plasma clearance of test compound (in L/kg/h); CLblood: Total blood clearance of test compound: CLplasma*Cp/Cb (abbreviation: CLp;) in L/kg/h) with Cp/Cb being the ratio of concentrations in plasma and blood.
PK parameters calculated from concentration time profiles after […].: Cmax: Maximal plasma concentration (in mg/L); Cmaxnorm: Cmax divided by the administered dose (in kg/L); Tmax: Time point at which Cmax was observed (in h). Parameters calculated from both, i.v. and i.g. concentration-time profiles: AUCnorm: Area under the concentration-time curve from t=0 h to infinity (extrapolated) divided by the administered dose (in kg*h/L); AUC(0-tlast)norm: Area under the concentration-time curve from t=0 h to the last time point for which plasma concentrations could be measured divided by the administered dose (in kg*h/L); t1/2: terminal half-life (in h); F: oral bioavailability: AUCnorm after intragastral administration divided by AUCnorm after intravenous administration (in %).

Chain of human full length PDE3A (Q14432 whole entry): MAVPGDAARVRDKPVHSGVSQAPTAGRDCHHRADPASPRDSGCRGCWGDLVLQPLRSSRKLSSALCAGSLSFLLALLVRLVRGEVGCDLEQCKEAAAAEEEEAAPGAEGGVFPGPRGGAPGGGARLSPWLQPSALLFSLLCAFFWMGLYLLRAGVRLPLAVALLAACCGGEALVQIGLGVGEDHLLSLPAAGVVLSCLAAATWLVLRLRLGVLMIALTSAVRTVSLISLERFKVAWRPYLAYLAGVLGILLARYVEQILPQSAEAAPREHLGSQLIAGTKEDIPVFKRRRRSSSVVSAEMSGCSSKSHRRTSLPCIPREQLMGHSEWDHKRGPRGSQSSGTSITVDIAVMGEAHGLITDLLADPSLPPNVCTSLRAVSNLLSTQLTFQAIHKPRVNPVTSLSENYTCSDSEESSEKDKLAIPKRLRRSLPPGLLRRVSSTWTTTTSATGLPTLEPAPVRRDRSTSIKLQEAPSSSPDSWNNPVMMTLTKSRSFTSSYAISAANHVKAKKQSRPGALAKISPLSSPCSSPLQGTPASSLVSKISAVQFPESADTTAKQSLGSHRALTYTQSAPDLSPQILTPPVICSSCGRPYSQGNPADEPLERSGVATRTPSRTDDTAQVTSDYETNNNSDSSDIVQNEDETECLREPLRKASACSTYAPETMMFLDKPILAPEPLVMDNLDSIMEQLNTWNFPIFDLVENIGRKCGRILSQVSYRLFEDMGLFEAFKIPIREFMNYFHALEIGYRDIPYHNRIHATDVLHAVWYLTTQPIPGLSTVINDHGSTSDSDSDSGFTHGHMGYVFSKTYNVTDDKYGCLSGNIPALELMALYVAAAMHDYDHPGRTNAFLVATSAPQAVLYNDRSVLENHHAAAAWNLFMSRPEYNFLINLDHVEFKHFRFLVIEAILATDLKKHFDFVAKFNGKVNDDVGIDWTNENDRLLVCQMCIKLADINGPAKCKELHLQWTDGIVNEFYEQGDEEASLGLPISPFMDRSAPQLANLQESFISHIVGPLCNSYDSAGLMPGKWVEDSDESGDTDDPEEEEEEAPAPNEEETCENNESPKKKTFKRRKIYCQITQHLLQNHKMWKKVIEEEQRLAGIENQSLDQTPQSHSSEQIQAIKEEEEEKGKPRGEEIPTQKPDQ

Row | IC50 [1] [nM] | pIC50 [3] | CLblood dog [4] [L/h/kg] | SMILES | IC50 [2] [nM]
1 | 5 | – | – | C[C@@H]1OC(=O)NN=C1c1ccc(-n2ccc(C(F)(F)F)n2)c(C(F)(F)F)c1 [Example 265, (6S)-6-Methyl-5-{3-(trifluoromethyl)-4-[3-(trifluoromethyl)-1H-pyrazol-1-yl]phenyl}-3,6-dihydro-2H-1,3,4-oxadiazin-2-one] | –
2 | 2 | 7.40 | 2.84 | O=C1NN=C(c2ccc(-c3cnn(C(F)F)c3)c(C(F)(F)F)c2)CO1 [Example 146, 5-{4-[1-(Difluoromethyl)-1H-pyrazol-4-yl]-3-(trifluoromethyl)phenyl}-3,6-dihydro-2H-1,3,4-oxadiazin-2-one] | 13
3 | 3 | 7.06 | 0.49 | C[C@@H]1OC(=O)NN=C1c1ccc(-c2ccc(F)cc2)c(C(F)(F)F)c1 [Example 135, (6S)-5-[4′-Fluoro-2-(trifluoromethyl)biphenyl-4-yl]-6-methyl-3,6-dihydro-2H-1,3,4-oxadiazin-2-one] | –

More lines, now with the values behind:

Row | SMILES | IC50 [1] [nM] | pIC50 [3] | CLblood dog [4] [L/h/kg] | IC50 [2] [nM]
4 | O=C1NN=C(c2ccc(-c3ccc(Cl)cc3)c(C(F)(F)F)c2)CO1 [Example 31, 5-[4′-Chloro-2-(trifluoromethyl)biphenyl-4-yl]-3,6-dihydro-2H-1,3,4-oxadiazin-2-one] | 11 | 6.51 | 0.49 | 47
5 | O=C1NN=C(c2ccc(-c3ccc(F)cc3)c(C(F)(F)F)c2)CO1 [Example 3, 5-[4′-Fluoro-2-(trifluoromethyl)biphenyl-4-yl]-3,6-dihydro-2H-1,3,4-oxadiazin-2-one] | 7 | 6.55 | 2.39 | 25
